In brackets after ≈: the same amount, converted by molar mass. Several values for one entry are separate records, joined by “and”; a condition that tells them apart may be missing. Equal entries are not always repeated.
How the values were obtained:
[1] = Cytotoxicity assay, HEK293; assay type: cell-based; conditions: human; HEK293 cells; mean (n = 2); read-out: Cytotoxicity (IC50), concentration of compound at 50% cytotoxicity
Description: Cytotoxicity assays were conducted using reported protocols (see Supplementary File). […]
HEK293 cells were counted manually in a Neubauer hemocytometer and plated at a density of 5,000 cells/well into each well of the 384-well plates containing the 25x (2 µL) concentrated compounds [26,27]. The medium used was Dulbecco's modified Eagle’s medium (DMEM), supplemented with 10% fetal bovine serum (FBS). Cells were incubated together with the compounds for 20 h at 37 °C, 5% CO2.
(§1) To measure cytotoxicity, 5 µL (equals 100 µM final) of resazurin was added to each well after incubation and incubated for further 3 h at 37 °C with 5% CO2. After the final incubation, fluorescence intensity […]
reader. CC50 values (concentration at 50% cytotoxicity) were calculated by normalizing the fluorescence readout, with 74 µg/mL tamoxifen as negative control (0%) and normal cell growth as positive control (100%). The concentration-dependent percentage cytotoxicity was fitted to a dose–response function (using Pipeline Pilot) and CC50 values were determined. […]

[2] = test system: P. aeruginosa ATCC 27853; assay: MIC of antibiotic alone, P. aeruginosa ATCC 27853; assay type: cell-based
Description: (§2) The susceptibility of bacterial strains S. aureus (ATCC 25923), E. coli (ATCC 25922), and P. aeruginosa (ATCC 27853 or PAO1) to antibiotics and compounds was determined using reported protocols. Additional antimicrobial evaluation against MRSA (ATCC 43300), Klebsiella pneumoniae (ATCC 700603), A. baumannii (ATCC 19606), Candida albicans (ATCC 90028), and Cryptococcus neoformans (ATCC 208821) was undertaken at the Community for Open Antimicrobial Drug Discovery at The University of Queensland (Australia) according to their standard protocols as reported previously. […]
(§3) 2.3. Antimicrobial Assays
(§4) The susceptibility of bacterial strains S. aureus (ATCC 25923), E. coli (ATCC 25922), and P. aeruginosa (ATCC 27853 or PAO1) to antibiotics and compounds was determined in microplates using the standard broth dilution method in accordance with the recommendations of the Comité de l’AntibioGramme de la Société Française de Microbiologie (CA-SFM). Briefly, the minimal inhibitory concentrations (MICs) were determined with an inoculum of 10^5 CFU in 200 µL of Mueller–Hinton broth (MHB) containing two-fold serial dilutions of each drug. The MIC was defined as the lowest […]
(§5) For C. neoformans, resazurin was added at 0.006% final concentration to each well and incubated for a further 3 h before MICs were determined by measuring […]

[3] = design: method as in PMID 22070694, PMID 31480231; conditions: phase I clinical trials; cited from earlier work
[4] = test system: S. aureus ATCC 25923; assay: MIC, broth dilution, S. aureus; assay type: cell-based; conditions: Staphylococcus aureus, ATCC25923, mean (n = 3)
Description: as §2, §3, §4
(§6) determine all MICs, the measurements were independently repeated in triplicate. Additional antimicrobial evaluation against MRSA (ATCC 43300), Klebsiella pneumoniae (ATCC 700603), A. baumannii (ATCC 19606), Candida albicans (ATCC 90028), and Cryptococcus neoformans (ATCC 208821) was undertaken at the Community for Open Antimicrobial Drug Discovery at The University of Queensland (Australia) according to their standard protocols as reported previously. […]
as §5
(§7) Colistin and vancomycin were used as positive bacterial inhibitor standards for Gram-negative and Gram-positive bacteria, respectively. Fluconazole was used as a positive fungal inhibitor standard for C. albicans and C. neoformans. The antibiotics were provided in […], with 3 above and 3 below its MIC value, and plated into the first 8 wells of column 23 of the 384-well NBS plates. The quality control (QC) of the assays was determined by the antimicrobial controls and the Z'-factor (using positive and negative controls). Each plate was deemed to fulfil the quality criteria (pass QC) if the Z'- […]
(§8) inhibition at their highest concentration, and no growth inhibition at their lowest concentration.
(§9) 2.4. Determination of the MICs of Antibiotics in the Presence of Synergizing Compounds

[5] = test system: Mycobacterium smegmatis; design: method as in PMID 16589015, PMID 22070694, PMID 22191527; conditions: cited from earlier work
[6] = test system: E. coli ATCC 25922; assay: MIC, broth dilution, E. coli; assay type: cell-based, Escherichia coli; conditions: Escherichia coli, ATCC25922, mean (n = 3)
Description: as §2, §3, §4, §6

[7] = test system: P. aeruginosa PAO1; assay: MIC, broth dilution, P. aeruginosa PAO1; assay type: cell-based; conditions: Pseudomonas aeruginosa, mean (n = 3)
Description: as §2, §3, §4, §6, §5, §7, §8, §9

[8] = test system: Staphylococcus aureus; design: method as in PMID 16589015, PMID 22070694, PMID 22191527; conditions: cited from earlier work
[9] = test system: Escherichia coli; design: method as in PMID 16589015, PMID 22070694, PMID 22191527; conditions: cited from earlier work
[10] = test system: C. neoformans ATCC 208821; assay: MIC, CO-ADD antifungal assay, C. neoformans; assay type: cell-based, Cryptococcus neoformans; conditions: Cryptococcus neoformans, ATCC208821, mean (n = 2)
Description: as §2, §3
(§10) The susceptibility of bacterial strains S. aureus (ATCC 25923), E. coli (ATCC 25922), and P. […]
(§11) baumannii (ATCC 19606), Candida albicans (ATCC 90028), and Cryptococcus neoformans (ATCC 208821) was undertaken at the Community for Open Antimicrobial Drug Discovery at The University of Queensland (Australia) according to their standard protocols as reported previously. […]
(§12) For the antifungal assay, fungi strains were cultured for 3 days on YPD agar at 30 °C. A yeast suspension of 1 × 106 to 5 × 10^6 CFU/mL was prepared from five colonies. These stock suspensions were diluted with yeast nitrogen base (YNB) (Becton Dickinson, 233520) broth to a final concentration of 2.5 × 10^3 CFU/mL. The compounds were serially diluted 2-fold across the wells of 96-well plates (Corning 3641, non-binding surface), with compound concentrations ranging from 0.015 to 64 µg/mL and final volumes of 50 µL, plated in duplicate. Then, 50 µL of the fungi suspension that was previously prepared in YNB broth to the final concentration of 2.5 × 10^3 CFU/mL was added to each well of the compound-containing plates, giving a final compound concentration range of 0.008 to 32 µg/mL. Plates were covered and incubated at 35 °C for 36 h without shaking. C. albicans MICs were determined by measuring the absorbance at OD530. For C. neoformans, resazurin was added at 0.006% final concentration to each well and incubated for a further 3 h before MICs were determined by measuring […]
as §7, §8, §9

[11] = test system: C. albicans ATCC 90028; assay: MIC, CO-ADD antifungal assay, C. albicans; assay type: cell-based, Candida albicans; conditions: Candida albicans, ATCC90028, mean (n = 2)
Description: as §2, §3, §10, §11, §12, §7, §8, §9

[12] = test system: MRSA ATCC 43300; assay: MIC, CO-ADD broth microdilution, MRSA; assay type: cell-based, methicillin-resistant S. aureus; conditions: Staphylococcus aureus, read-out: MIC MRSA
Description: as §2, §3, §10
baumannii (ATCC 19606), Candida albicans (ATCC 90028), and Cryptococcus neoformans (ATCC 208821) was undertaken at the Community for Open Antimicrobial Drug Discovery at The University of Queensland (Australia) according to their standard protocols as reported previously. For antimicrobial assays, the tested strains were cultured in either Luria broth (LB) (In Vitro Technologies, USB75852), nutrient broth (NB) (Becton Dickson, 234000), or MHB at 37 °C overnight. A sample of culture was then diluted 40-fold in fresh MHB and incubated at 37 °C for 1.5−2 h. The compounds were serially diluted 2-fold across the wells of 96-well plates (Corning 3641, non-binding surface), with compound concentrations ranging from 0.015 to 64 µg/ mL, and plated in duplicate. The resultant mid-log phase cultures were diluted to the final concentration of 1 × 10^6 CFU/mL; then, 50 µL was added to each well of the compound-containing plates, giving a final compound concentration range of 0.008 to 32 µg/mL and a cell density of 5 × 10^5 CFU/mL. All plates were then covered and incubated at 37 °C for 18 h. Resazurin was added at 0.001% final concentration to each well and incubated for 2 h before MICs […]
as §5, §7, §8, §9

[13] = test system: P. aeruginosa PAO1; assay: Nitrocefin hydrolysis assay (outer membrane permeabilization); assay type: cell-based; conditions: polymyxin B at 98.3 μM ([…])
Description: Nitrocefin assays were conducted using reported protocols (see Supplementary File).
We also examined the ability of 9e to act as membrane disruptor of the Gram-negative bacteria P. aeruginosa PAO1 (Figure 5), using a nitrocefin colorimetric assay. This assay makes use of a chromogenic cephalosporin derivative, which in the presence of an outer membrane disruptor gains entry to the periplasm, where upon the action of β-lactamases leads to substrate hydrolysis with a detectable color change from yellow to red.
Briefly, restoring enhancer concentrations were determined with an inoculum of 5x10^5 CFU in 200 µL of MHB containing two-fold serial dilutions of each derivative in the presence of doxycycline at 4.5 […]
The lowest concentration of the polyamine
These measurements were independently repeated in triplicate.
Outer membrane permeabilization was measured using nitrocefin as a chromogenic substrate of periplasmic β-lactamase. […] Nitrocefin hydrolysis was monitored spectrophotometrically by measuring the increase in absorbance at 490 nm. […]
HEK293 cells were counted manually in a Neubauer hemocytometer and plated at a density of 5,000 cells/well into each well of the 384-well plates containing the 25x (2 µL) concentrated compounds [26,27]. […]
as §1
reader. […] The concentration-dependent percentage cytotoxicity was fitted to a dose–response function (using Pipeline Pilot) and CC50 values were determined.
Human whole blood was washed three times with three volumes of 0.9% NaCl and then resuspended in the same solution to a concentration of 0.5 x 10^8 cells/mL, as determined by the manual cell count in a Neubauer hemocytometer. […] Hemolysis was determined by measuring the supernatant absorbance at […] (OD405). The absorbance was measured using a Tecan M1000 Pro monochromator plate reader. […]

CC/C(=C(\c1ccccc1)c1ccc(OCCN(C)C)cc1)c1ccccc1 [tamoxifen, reference compound]
IC50 at 20 h [1]: 24 µM

C[C@H]1c2cccc(O)c2C(=O)C2=C(O)[C@]3(O)C(=O)C(C(N)=O)=C(O)[C@@H](N(C)C)[C@@H]3[C@@H](O)[C@@H]21 [doxycycline]
MIC of antibiotic alone [2]: 90 μM and 40 μg/mL

azamulin [Compound 4]
Bioavailability [3]: poor bioavailability

O=C(N[C@H](CO)[C@H](O)c1ccc([N+](=O)[O-])cc1)C(Cl)Cl [chloramphenicol, reference compound]
MIC [4]: 1.5 to 3 µM

C=C[C@]1(C)C[C@@H](OC(=O)CO)[C@]2(C)[C@H](C)CC[C@]3(CCC(=O)[C@H]32)[C@@H](C)[C@@H]1O [Compound 1, pleuromutilin]
Antibacterial activity against Mycobacterium smegmatis [5]: moderate activity
MIC [6]: 400 µM (≈ 151 µg/mL)
MIC [7]: 800 µM
Antibacterial activity against Staphylococcus aureus [8]: bactericidal activity
Antibacterial activity against Escherichia coli [9]: no effect
MIC [4]: 3.12 µM

OC(Cn1cncn1)(Cn1cncn1)c1ccc(F)cc1F [fluconazole, reference compound]
MIC [10]: 26 µM
MIC [11]: 0.4 µM

CN[C@H](CC(C)C)C(=O)N[C@H]1C(=O)N[C@@H](CC(N)=O)C(=O)N[C@H]2C(=O)N[C@H]3C(=O)N[C@H](C(=O)N[C@H](C(=O)O)c4cc(O)cc(O)c4-c4cc3ccc4O)[C@H](O)c3ccc(c(Cl)c3)Oc3cc2cc(c3O[C@@H]2O[C@H](CO)[C@@H](O)[C@H](O)[C@H]2O[C@H]2C[C@](C)(N)[C@H](O)[C@H](C)O2)Oc2ccc(cc2Cl)[C@H]1O [vancomycin, reference compound]
MIC [12]: 0.7 µM

polymyxin B
Outer membrane perturbation (nitrocefin hydrolysis) [13]: potent ability to perturb the outer membrane

[H]/N=C(/N)N[C@H]1[C@H](O)[C@@H](O)[C@H](O[C@@H]2O[C@@H](C)[C@](O)(C=O)[C@H]2O[C@@H]2O[C@@H](CO)[C@H](O)[C@@H](O)[C@@H]2NC)[C@@H](N/C(N)=N\[H])[C@@H]1O [streptomycin, reference compound]
MIC [6]: 21.5 µM (≈ 12.5 µg/mL)
MIC [7]: 21.5 µM
MIC [4]: 21.5 µM

Source: publication PMC10673369, “Preliminary SAR of Novel Pleuromutilin–Polyamine Conjugates” (Microorganisms, 2023)
